From PMC4474874, “Effect of JAK Inhibitors on Release of CXCL9, CXCL10 and CXCL11 from Human Airway Epithelial Cells” (PLoS ONE, 2015)
Read-outs that look alike come from different tables or passages of the source.

Key:
[1] = system: BEAS-2B cells; test: Release of CXCL9, CXCL10 and CXCL11 from BEAS-2B cells (ELISA), inhibitors added 1h before stimulus; format: cell-based, human; details: for IC50: BEAS-2B, pre-treated 1h
Experimental: (§1) BEAS-2B cells (catalogue number CRL-9609) were purchased directly from American Type Culture Collection (Rockville, MD). Keratinocyte serum-free medium (K-SFM), bovine pituitary extract (BPE), and recombinant human epidermal growth factor (EGF) were purchased from Invitrogen (Paisley, UK). BEAS-2B cells were cultured in K-SFM containing 50 μg/ml BPE and 5 ng/ml EGF at 37°C in a humidified atmosphere comprising 5% (v/v) CO2 in air. Cells were cultured as monolayers in growth factor-free media for 24 h prior to stimulation. Human primary airway epithelial cells were cultured as monolayers from bronchial brushings from both male and female subjects (Table 1) and cultured in LHC-9 media (Invitrogen, Paisley, UK) in collagen (1% w/v) coated flasks. Samples were obtained from non-smokers, smokers and patients with COPD. […] The subjects were matched for age and smokers and COPD patients for smoking history (Table 1). All subjects gave informed written consent and the study was approved by the NRES London-Chelsea Research Ethics committee, study number 09/H0801/85.
(§2) Cell-free supernatants were removed 20h post-stimulation and assayed for CXCL9, CXCL10 and CXCL11 using Duoset ELISA kits (R & D Systems Europe, Abingdon, UK) according to the manufacturer’s instructions. The detection limits of these assays are 62pg/ml, 31pg/ml, and 7.8 pg/ml respectively.
(§3) Data are presented as mean ± SEM of ‘n’ independent determinations. Concentration-response curves were analysed by least-squares, non-linear iterative regression with the ‘Graphpad Prism’ curve fitting program (GraphPad software, San Diego, USA) and IC50 values were subsequently interpolated from curves of best-fit. Statistical differences were determined using the Kruskal–Wallis test followed by Dunn's multiple comparison test or a Wilcoxon signed rank test as appropriate. Values of P<0.05 were considered significant.
Media was harvested and the concentrations of CXCL9 (panels a and d), CXCL10 (panels b and e) and CXCL11 (panels c and f) were measured by ELISA. Data are presented as mean±SEM, n = 7–8.

[2] = system: BEAS-2B cells; test: mRNA expression of CXCL9, CXCL10 and CXCL11 in BEAS-2B cells (Taqman RT-PCR); format: cell-based, human; details: BEAS-2b, pretreated 1h, IFNγ or IFNγ with TNFα for 4h
Experimental: Total RNA was extracted from cells and reverse transcribed, as described previously. Gene expression was determined by Taqman real-time PCR on a 7500 Real Time PCR system (Applied Biosystems, Life Technologies Ltd, Paisley, UK) using PCR Master Mix Reagent and ‘assays on demand’ (Applied Biosystems). HPRT1 gene expression was used as the housekeeping gene and data presented as δδCT relative to baseline.
Gene expression of CXCL9 (panels a and b), CXCL10 (panels c and d) and CXCL11 (panels e and f) were quantified by Taqman RT-PCR. Data are presented as fold change form stimulus ± SEM; n = 3 where 1 indicates the level of mRNA induced by IFNγ or IFNγ + TNFα in the absence of inhibitors.

[3] = system: human primary airway epithelial cells; test: Release of CXCL9, CXCL10 and CXCL11 from human primary airway epithelial cells (ELISA); format: cell-based; details: pre-treated 1h; for IC50: pooled primary cells
Experimental: as §1, §2, §3
Media was harvested and the concentrations of CXCL9 (panels a and d), CXCL10 (panels b and e) and CXCL11 (panels c and f) were measured by ELISA. Data are presented as mean ± SEM, n = 10–13.

[4] = system: STAT-3; test: STAT-3 DNA binding in BEAS-2B cells (TransAM); format: cell-based, human; details: IFNγ + TNFα, inhibitor 10^-6M
Experimental: STAT phosphorylation, nuclear translocation and DNA binding was determined using TransAM assays (Actif Motif, Rixensart, Belgium). Cells were treated with JAK inhibitors for 30 min prior to stimulation for 1h. Nuclear extracts were prepared using the Actif Motif assay reagents. Briefly, the nuclear extracts (10 μg) were incubated in DNA coated plates for 1h. After washing, antibodies supplied with the TransAM kit that were specific for the active forms of STAT1, STAT3, STAT5A and STAT5B were added to the wells and incubated for a further hour. The plates were washed and a secondary HRP-labelled anti-goat Ig antibody was added and the plates incubated for an hour. After washing, the assay was developed using the TMB substrate provided and the reaction stopped using 2N sulphuric acid. The plates were read at 450nm with a reference filter of 610nm. Data were then normalised to non-stimulated cells and calculated as fold change from baseline.
After 1 h, nuclear extracts of the cells were prepared and TransAM assays for STAT-1 (panel a) and STAT-3 (panel b) were performed. Data are presented as fold change from baseline ± SEM; n = 4.

[5] = system: BEAS-2B and human primary airway epithelial cells; test: Cell viability, MTT assay; format: cell-based
Experimental: Cell viability was determined colorimetrically by measuring the reduction of 3-[4,5-dimethylthiazol-2-yl]-2,5-diphenyltetrazolium bromide, MTT, to formazan by mitochondrial dehydrogenases, as described previously.
In order to determine whether any of the inhibitory effects of the JAK inhibitors could be attributed to cell death, MTT assays were performed at the end of every experiment. […] In order to address this issue, the levels of IL-6 released from cells stimulated with IFNγ + TNFα were measured.

[6] = IFNγ (10ng/ml) 20h, read-out: IC50, release of CXCL9
[7] = IFNγ (10ng/ml) 20h, read-out: IC50, release of CXCL10
[8] = IFNγ (10ng/ml) 20h, read-out: IC50, release of CXCL11
[9] = IFNγ+TNFα (10ng/ml) 20h, read-out: IC50, release of CXCL9
[10] = IFNγ+TNFα (10ng/ml) 20h, read-out: IC50, release of CXCL10

SMILES: C[C@@H]1CCN(C(=O)N2CCCC2)C[C@@H]1N(C)c1ncnc2[nH]ccc12 [PF956980]
- IC50 [1, 6]: 400 ± 100 nM
- IC50 [1, 7]: 600 ± 300 nM
- IC50 [1, 8]: 500 ± 100 nM
- IC50 [1, 9]: 600 ± 100 nM
- IC50 [1, 10]: 2200 ± 300 nM
- effect on IFNγ-stimulated release of CXCL9, CXCL10 and CXCL11 ([1]; present study, IFNγ-stimulated): completely attenuated
- effect on expression of CXCL9, CXCL10 and CXCL11 (mRNA) [2]: suppressed expression of CXCL9, CXCL10 and CXCL11 in a concentration dependent manner
- IC50 [3, 6]: 680 ± 120 nM
- IC50 [3, 7]: 960 ± 190 nM
- IC50 [3, 8]: 760 ± 120 nM
- IC50 [3, 9]: 520 ± 170 nM
- IC50 [3, 10]: 2120 ± 240 nM
- IC50 ([3]; IFNγ+TNFα (10ng/ml) 20h, read-out: IC50, release of CXCL11): 1580 ± 330 nM
- EC50 ([3]; primary cells from COPD patients, IFNγ (10 ng/ml) 20h, read-out: EC50, release of CXCL9): 630 ± 90 nM
- EC50 ([3]; primary cells from COPD patients, IFNγ (10 ng/ml) 20h, read-out: EC50, release of CXCL10): 530 ± 10 nM
- EC50 ([3]; primary cells from COPD patients, IFNγ (10 ng/ml) 20h, read-out: EC50, release of CXCL11): 820 ± 250 nM
- EC50 ([3]; primary cells from COPD patients, IFNγ +TNFα (10 ng/ml) 20h, read-out: EC50, release of CXCL9): 590 ± 380 nM
- EC50 ([3]; primary cells from COPD patients, IFNγ +TNFα (10 ng/ml) 20h, read-out: EC50, release of CXCL10): 1840 ± 400 nM
- EC50 ([3]; primary cells from COPD patients, IFNγ +TNFα (10 ng/ml) 20h, read-out: EC50, release of CXCL11): 1920 ± 670 nM
- EC50 ([3]; primary cells from non-smokers, IFNγ (10 ng/ml) 20h, read-out: EC50, release of CXCL9): 880 ± 390 nM
- EC50 ([3]; primary cells from non-smokers, IFNγ (10 ng/ml) 20h, read-out: EC50, release of CXCL10): 810 ± 150 nM
- EC50 ([3]; primary cells from non-smokers, IFNγ (10 ng/ml) 20h, read-out: EC50, release of CXCL11): 660 ± 240 nM
- EC50 ([3]; primary cells from non-smokers, IFNγ +TNFα (10 ng/ml) 20h, read-out: EC50, release of CXCL9): 610 ± 260 nM
- EC50 ([3]; primary cells from non-smokers, IFNγ +TNFα (10 ng/ml) 20h, read-out: EC50, release of CXCL10): 2720 ± 360 nM
- EC50 ([3]; primary cells from non-smokers, IFNγ +TNFα (10 ng/ml) 20h, read-out: EC50, release of CXCL11): 1850 ± 670 nM
- EC50 ([3]; primary cells from smokers, IFNγ (10 ng/ml) 20h, read-out: EC50, release of CXCL9): 550 ± 90 nM
- EC50 ([3]; primary cells from smokers, IFNγ (10 ng/ml) 20h, read-out: EC50, release of CXCL10): 1280 ± 360 nM
- EC50 ([3]; primary cells from smokers, IFNγ (10 ng/ml) 20h, read-out: EC50, release of CXCL11): 780 ± 160 nM
- EC50 ([3]; primary cells from smokers, IFNγ +TNFα (10 ng/ml) 20h, read-out: EC50, release of CXCL9): 350 ± 260 nM
- EC50 ([3]; primary cells from smokers, IFNγ +TNFα (10 ng/ml) 20h, read-out: EC50, release of CXCL10): 1880 ± 410 nM
- EC50 ([3]; primary cells from smokers, IFNγ +TNFα (10 ng/ml) 20h, read-out: EC50, release of CXCL11): 870 ± 130 nM
- effect on STAT-3 binding to DNA [4]: suppressed
- effect on cell viability (MTT) ([5]; any of the concentrations used in this study): no effect on cell viability
- cell viability compared to untreated cells (MTT) ([5]; at 10^-6M and at all concentrations below this): no alterations in cell viability
